The results in this text go back to patent publication US10500139B2, “Formulations and materials with cationic polymers” (UCL BUSINESS LTD, priority 2013, dated 2019).

The data set can be described thus: CHX and PLS release into storage solution. It is filed as physicochemical. The note with it: in water over a period of 6 weeks. How it is done:
CHX and PLS release into sample storage solutions were quantified using UV spectrometry (Mehdawi 2009, Zhao 2011) and HPLC respectively.
Reactive filler composites containing PLS were prepared as 1 mm thick composite discs. The fluid phase contained 70% UDMA, 25% TEG-DMA, 5% HEMA, 300 ppm BHT, DMPT 0.5%, BP 0.5%. 25 wt % of this fluid phase was combined with 75 wt % powder filler. The filler contained polylysine (1 or 10 wt %), chlorhexidine (0 or 10 wt %), MCPM/TCP (CaP=10 or 20 wt %) and the remainder glass particles (Sci Pharm).

Take ε-poly-L-lysine [PLS]: the “percentage released from 1 mm thick composite discs” value is “over 70%”.
